Experimental data published in US11389415B2, “Methods of regulating cannabinoid receptor activity-related disorders and diseases” (The United States of America as represented by the …, priority 2012, dated 2022).

Columns and labels:
U87MG cells = experiment: [3H]-Thymidine incorporation in U87MG cells; assay type: cell-based, human; conditions: compound alone
Procedure: Maintenance and Treatment of Cell Lines. Human HepG2 hepatocarcinoma cells and human U87MG glioma cells (ATCC, Manassas, Va.) were maintained in EMEM medium supplemented with 1% L-glutamine, 1% sodium pyruvate, 1% penicillin/streptomycin, and 10% FBS (Hyclone, Logan, Utah). The human 1321N1 astrocytoma cells (European Collection of Cell Cultures, Sigma-Aldrich) were cultured in Dulbecco's modified Eagle's medium supplemented with 10% FBS and penicillin/streptomycin. All cell lines were cultured at 37° C. in 5% CO2, and the medium was replaced every 2-3 days.
Cells were seeded in 12-well plates at approximately 50,000 cells/well and incubated at 37° C. After 24 hours, the wells were rinsed with PBS and replaced with serum-free medium containing the appropriate concentration of the test compounds. After another 24-hour incubation at 37° C., 1 μCi of [^3H]-thymidine was added to each well and incubated at 37° C. for 16 hours. [^3H]-Thymidine incorporation into DNA was monitored after the cells were washed twice with PBS and then lysed in 600 μL of 0.1N NaOH for 30 minutes with shaking. The lysate was then mixed with 3 mL of liquid scintillation cocktail (Beckman Coulter, Inc., Brea, Calif.), and radioactivity was measured by liquid scintillation counting using Beckman Coulter LS6000IC Scintillation Counter. Data are shown as CPM incorporated compared to the control cells.

rat C6 glioma cells = experiment: 3H-Thymidine incorporation in rat C6 glioma cells; assay type: cell-based; conditions: 24 hours
Procedure: Cell culture. The rat-derived C6 glioma cell line was obtained from the American Type Culture Collection (Manassas, Va.). The cells were routinely maintained in DMEM supplemented with L-glutamine, 1% penicillin/streptomycin solution, and 10% FBS in a humidified CO2 incubator at 37° C.
3H-Thymidine incorporation. C6 glioma cells were seeded in 12-well plates at ˜5×10^4 cells/well and incubated for 24 hours followed by a second 24-hour incubation with various concentrations of MNF. Radiolabeled thymidine (10 Ci/mmol; PerkinElmer Life and Analytical Sciences, Waltham, Mass.) was added at 1 μCi per well for 16 hours and its incorporation into DNA was then measured. Each treatment group was performed in triplicate and three independent studies were carried out.

ERK1/2 = ERK1/2 phosphorylation (GPR55 downstream signaling) in PANC-1 cells; assay type: cell-based, human
Procedure: Western blot analysis. For detection of intracellular signaling proteins, cells were lysed in radioimmunoprecipitation buffer containing EGTA and EDTA (Boston BioProducts, Ashland, Mass.). The lysis buffer contained a protease inhibitor cocktail (Sigma-Aldrich) and phosphatase inhibitor cocktail (Calbiochem, San Diego, Calif.). Equivalent amount of proteins (14 and 54 μg/well for PANC-1 and HepG2 cells, respectively) were separated on 4 to 12% precast gels (Invitrogen, Carlsbad, Calif.) using SDS-polyacrylamide gel electrophoresis under reducing conditions and then electrophoretically transferred onto polyvinylidene fluoride membrane (Invitrogen). Western blots were performed according to standard methods, which involved blocking in 5% non-fat milk and incubated with the antibody of interest, followed by incubation with a secondary antibody conjugated with the enzyme horseradish perodixase. […] The quantification of bands was done by volume densitometry by using ImageJ software. […]
Effect of MNF on O-1602-mediated increase in cell signaling. Serum-starved cells were pretreated in the absence or presence of 1 μM MNF for 10 minutes followed by a 10 minute incubation with 0, 2.5 and 10 μM O-1602 or 10% FBS, after which the levels of total ERK2 and phosphorylated forms of ERK1/2 (pErk1/2, Thr202/Tyr204), were determined by Western blotting technique. […]

GPR55 = GPR55 (Homo sapiens, UniProt Q9Y2T6); experiment: GPR55 internalization assay in hGPR55-HEK293 cells; assay type: cell-based; conditions: 1 μM pretreatment 45 minutes
Chain of GPR55 (Q9Y2T6 whole entry): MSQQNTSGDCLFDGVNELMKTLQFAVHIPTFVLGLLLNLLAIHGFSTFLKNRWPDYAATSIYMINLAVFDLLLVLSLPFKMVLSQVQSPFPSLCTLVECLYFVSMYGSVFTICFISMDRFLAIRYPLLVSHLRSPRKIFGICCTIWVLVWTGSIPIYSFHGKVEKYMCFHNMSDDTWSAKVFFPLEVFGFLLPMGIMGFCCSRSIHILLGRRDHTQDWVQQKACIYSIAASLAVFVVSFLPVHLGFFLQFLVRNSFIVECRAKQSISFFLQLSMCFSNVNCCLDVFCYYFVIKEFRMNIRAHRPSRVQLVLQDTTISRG
Procedure: GPR55 internalization assay. Endocytosis of GPR55 was observed following a previously described protocol with minor modifications (Henstridge et al., Br. J. Pharmacol. 160: 604-614, 2010). Briefly, hGPR55-HEK293 cells were grown on Lab-Tek II CC2 chamber slides (Thermo Scientific Nunc, Rochester, N.Y.) for 48 hours in regular media and then were serum starved for 1 hour. A preincubation with 1:1000 rabbit HA antibody (Covance, Md.) was performed in the presence of vehicle (0.1% DMSO) or 1 μM MNF in serum-free media for 45 minutes at 37° C. in the CO2 incubator. Cells were then washed extensively with PBS and treated with 5 μM 01602 in serum-free media for 20 minutes at 37° C. in the CO2 incubator. Subsequently, cells were washed three times, fixed in fresh 3.7% paraformaldehyde in PBS (10 min), and incubated with anti-rabbit Alexa Fluor 488 antibody (Molecular Probes, Eugene, Oreg.; 1:1000, 30 minutes). Cells were washed and fixed for a second time prior to permeabilization with 0.2% Triton X-100 (5 minutes). Incubation with anti-rabbit Alexa Fluor 568 antibody (Molecular Probes; 1:1000, 30 minutes) was carried out to determine the extent of internalized GPR55-HA antibody complex. […]

HepG2 cells = experiment: Cell cycle analysis by flow cytometry in HepG2 cells; assay type: cell-based, human; conditions: HepG2, 1 μM
Procedure: Cell Cycle Analysis. Cell cycle distributions were performed by flow cytometry on propidium iodide-stained nuclei prepared by the NIM technique. DNA histograms of at least 10,000 cells acquired on a Becton-Dickinson FACScanto II (BD Biosciences, San Jose, Calif.) were deconvoluted using the Multicycle program (Phoenix Flow Systems) for estimates of the percentage of cells in the G0/1, S, and G2+M phases of the cell cycle. Debris and doublets were removed from the analysis by software algorithms.

## COc1ccc(C[C@@H](C)NC[C@H](O)c2cc(O)cc(O)c2)c2ccccc12 [(R,R′)-MNF, (R,R′)-4′-methoxy-1-naphthylfenoterol]
U87MG cells
  effect on cellular proliferation: potent inhibition of cellular proliferation
Rat C6 glioma cells; 20 nM
  inhibition of C6 cell growth / reduction in mitogenesis: 54.3±1.2%
Rat C6 glioma cells; then [3H]-thymidine 16 hours, read-out: IC50, growth inhibition of rat C6 glioma cell line
  IC50: ~1 nM
ERK1/2; PANC-1, 1 μM pretreatment 10 minutes
  effect on O-1602-mediated ERK phosphorylation: displayed exquisite sensitivity to MNF with regard to O-1602-mediated ERK phosphorylation
ERK1/2; PANC-1, 1 μM pretreatment, 10% FBS
  effect on serum-induced ERK phosphorylation: potently inhibited serum-induced ERK phosphorylation in both cell lines
GPR55
  effect on O-1602-induced GPR55 internalization: blocked by pretreatment with MNF
HepG2 cells; after 6 h (control 13.8±1.1%)
  G2/M-phase cell population: 10.2±0.9%
HepG2 cells; after 6 h (control 34.7±0.3%)
  S-phase cell population: 34.1±0.9%
HepG2 cells; after 12 h
  G2/M-phase cell population: 14.6±1.8%
  S-phase cell population: 13.7±1.2%
HepG2 cells; after 24 h
  G2/M-phase cell population: 8.9±1.6%
  S-phase cell population: 24.6±4.2%
HepG2 cells; by 12 hours
  number of sub-G1 events, maximum: 21.5±0.7%
